# Target: T1, human FXR alpha ligand binding domain (LBD) (Homo sapiens, UniProt Q96RI1)
# T1 construct: made in house; host or cells: E. coli BL21(DE3), vector pDEST15
# T1 sequence (Q96RI1 187-472 isoform Q96RI1-2): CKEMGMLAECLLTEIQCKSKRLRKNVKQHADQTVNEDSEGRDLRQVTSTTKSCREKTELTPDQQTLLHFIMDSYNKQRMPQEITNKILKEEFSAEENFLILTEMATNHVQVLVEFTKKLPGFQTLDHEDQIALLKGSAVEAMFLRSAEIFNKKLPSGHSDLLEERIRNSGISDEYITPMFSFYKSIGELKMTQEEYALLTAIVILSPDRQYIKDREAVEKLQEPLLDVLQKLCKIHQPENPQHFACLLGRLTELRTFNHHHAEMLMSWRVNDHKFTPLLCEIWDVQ
# Assay: FRET activity assay (FXR-LBD / SRC-1 cofactor peptide interaction, LANCE)
# Format: biochemical
# Conditions: GST-FXR-LBD, biotinylated SRC-1 peptide 676-700
# Method: Determination of a ligand mediated cofactor peptide interaction to quantify ligand binding to the nuclear receptor FXR was performed as follows.
# Preparation of human FXR alpha ligand binding domain (LBD): The human FXRalpha LBD was expressed in E. coli strain BL21(DE3) as an N-terminally GST tagged fusion protein. The DNA encoding the FXR ligand binding domain was cloned into vector pDEST15 (Invitrogen). Expression was under control of an IPTG inducible T7 promoter. The amino acid boundaries of the ligand binding domain were amino acids 187-472 of Database entry NM 005123 (RefSeq). Expression and purification of the FXR-LBD: An overnight preculture of a transformed E. coli strain was diluted 1:20 in LB-Ampicillin medium and grown at 30° C. to an optical density of OD600=0.4−0.6. Gene expression was then induced by addition of 0.5 mM IPTG. Cells were incubated an additional 6 h at 30° C., 180 rpm. Cells were collected by centrifugation (7000×g, 7 minutes, room temperature). […] The protein was analysed by SDS-Page.
# The method measures the ability of putative ligands to modulate the interaction between the purified bacterially expressed FXR ligand binding domain (LBD) and a synthetic biotinylated peptide based on residues 676-700 of SRC-1 (LCD2, 676-700). […] The ligand binding domain (LBD) of FXR was expressed as fusion protein with GST in BL-21 cells using the vector pDEST15. […] For ease of handling and reduction of background from compound fluorescence LANCE technology makes use of generic fluorophore labels and time resolved detection Assays were done in a final volume of 25 μL in a 384 well plate, in a Tris-based buffer (20 mM Tris-HCl pH 7.5; 60 mM KCl, 5 mM MgCl2; 35 ng/μL BSA), containing 20-60 ng/well recombinantly expressed FXR-LBD fused to GST, 200-600 nM N-terminally biotinylated peptide, representing SRC1 aminoacids 676-700, 200 ng/well Streptavidin-xlAPC conjugate (Prozyme) and 6-10 ng/well Eu W1024-antiGST (Perkin Elmer). […] The LANCE signal was detected by a Perkin Elmer VICTOR2VTM Multilabel Counter. […]
row,EC50,SMILES
1,14.2 nM,"O=C(O)c1ccc(N2CC(O)(c3ccc(OCc4c(-c5c(Cl)cc(F)cc5Cl)noc4C4CC4)cc3Cl)C2)nc1 [Example 1, 6-(3-(2-chloro-4-((5-cyclopropyl-3-(2,6-dichloro-4-fluorophenyl)isoxazol-4-yl)methoxy)phenyl)-3-hydroxyazetidin-1-yl)nicotinic acid]"
2,7.5 nM,"O=C(O)c1cnc(N2CC(O)(c3ccc(OCc4c(-c5c(Cl)cc(F)cc5Cl)noc4C4CC4)cc3Cl)C2)c(F)c1 [Comparative Example 1, 6-(3-(2-chloro-4-((5-cyclopropyl-3-(2,6-dichloro-4-fluorophenyl)isoxazol-4-yl)methoxy)phenyl)-3-hydroxyazetidin-1-yl)-5-fluoronicotinic acid]"
3,3.4 nM,O=C(O)c1ccc(N2CC(O)(c3ccc(OCc4c(-c5c(Cl)cccc5Cl)noc4C4CC4)cc3Cl)C2)nc1 [Comparative Example 2]
